Square brackets hold non-standard residues; d marks the D form. Peptide text beside a SMILES is read from it. βAla = NCCC(=O)O

The subject of the first test is P. infestans. The test is classed as cell-based. As to conditions: 200 µM; P. infestans mycelium; peptidomimetics.
In the case of “H2N-βA-RWM-hL-VYRR-CONH2 (H-[βAla]RWMXVYRR-NH2; not fully specified (residue 5); printed as H2N-βA-RWM-hL-VYRR-CONH2) [LR193, hydrazino-Leu analogue]”, the “PPI (%) ± Std. Dev.” value is given as 79.35 ± 5.47 (b) %.

`CSCC[C@H](NC(=O)[C@@H](Cc1c[nH]c2ccccc12)NC(=O)[C@@H](CCCNC(=N)N)NC(=O)CCN)C(=O)N[C@@H](CC(C)C)C(=O)N[C@H](C(=O)N[C@H](Cc1ccc(O)cc1)C(=O)N[C@@H](CCCNC(=N)N)C(=O)N[C@H](CCCNC(=N)N)C(N)=O)C(C)C` [LR202, H2N-βA-(D)R-(D)W-MLV-(D)Y-R-(D)R-CONH2] (H-[βAla][dR][dW]MLV[dY]R[dR]-NH2): the “PPI (%) ± Std. Dev.” value is recorded as 78.26 ± 0 (b) %. `CSCC[C@H](NC(=O)[C@@H](Cc1c[nH]c2ccccc12)NC(=O)[C@@H](CCCNC(=N)N)NC(=O)CCN)C(=O)N[C@@H](CC(C)C)C(=O)N[C@H](C(=O)N[C@H](Cc1ccc(O)cc1)C(=O)N[C@@H](CCCNC(=N)N)C(=O)N[C@@H](CCCNC(=N)N)C(N)=O)C(C)C` [LR206, H2N-βA-(D)R-(D)W-MLV-(D)Y-RR-CONH2] (H-[βAla][dR][dW]MLV[dY]RR-NH2): the “PPI (%) ± Std. Dev.” value is reported as 81.52 ± 5.47 (b) %.

The same test, now with this note: Ala-scan of Ac-LP20 and CP20-Met-Ala; P. infestans mycelium in vitro.
On to `CSCC[C@H](NC(=O)[C@H](C)NC(=O)[C@H](CCCNC(=N)N)NC(=O)CCNC(C)=O)C(=O)N[C@@H](CC(C)C)C(=O)N[C@H](C(=O)N[C@@H](Cc1ccc(O)cc1)C(=O)N[C@@H](CCCNC(=N)N)C(=O)N[C@@H](CCCNC(=N)N)C(N)=O)C(C)C` [Ac-LP20-Ala3, Ac-βA-RAMLVYRR-CONH2] (Ac-[βAla]RAMLVYRR-NH2), for which the “PPI (%) mycelium” value is recorded as 100 ± 0%. Still for that read-out and setting: the value for `CSCC[C@H](NC(=O)[C@H](Cc1c[nH]c2ccccc12)NC(=O)[C@H](CCCNC(=N)N)NC(=O)CCNC(C)=O)C(=O)N[C@@H](C)C(=O)N[C@H](C(=O)N[C@@H](Cc1ccc(O)cc1)C(=O)N[C@@H](CCCNC(=N)N)C(=O)N[C@@H](CCCNC(=N)N)C(N)=O)C(C)C` [Ac-LP20-Ala5, Ac-βA-RWMAVYRR-CONH2] (Ac-[βAla]RWMAVYRR-NH2) was 70.73 ± 0%; that for `CSCC[C@H](NC(=O)[C@H](Cc1c[nH]c2ccccc12)NC(=O)[C@H](CCCNC(=N)N)NC(=O)CCNC(C)=O)C(=O)N[C@@H](CC(C)C)C(=O)N[C@H](C(=O)N[C@@H](Cc1ccc(O)cc1)C(=O)N[C@@H](C)C(=O)N[C@@H](CCCNC(=N)N)C(N)=O)C(C)C` [Ac-LP20-Ala8, Ac-βA-RWMLVYAR-CONH2] (Ac-[βAla]RWMLVYAR-NH2) was 10.57 ± 9.49%; that for `CSCC[C@H](NC(=O)[C@H](Cc1c[nH]c2ccccc12)NC(=O)[C@H](CCCNC(=N)N)NC(=O)CCNC(C)=O)C(=O)N[C@@H](CC(C)C)C(=O)N[C@H](C(=O)N[C@@H](C)C(=O)N[C@@H](CCCNC(=N)N)C(=O)N[C@@H](CCCNC(=N)N)C(N)=O)C(C)C` [Ac-LP20-Ala7, Ac-βA-RWMLVARR-CONH2] (Ac-[βAla]RWMLVARR-NH2) was 17.48 ± 12.34%.

Consider `CSCC[C@H](NC(=O)[C@H](Cc1c[nH]c2ccccc12)NC(=O)[C@H](C)NC(=O)CCNC(C)=O)C(=O)N[C@@H](CC(C)C)C(=O)N[C@H](C(=O)N[C@@H](Cc1ccc(O)cc1)C(=O)N[C@@H](CCCNC(=N)N)C(=O)N[C@@H](CCCNC(=N)N)C(N)=O)C(C)C` [Ac-LP20-Ala2, Ac-βA-AWMLVYRR-CONH2] (Ac-[βAla]AWMLVYRR-NH2), for which the “PPI (%) mycelium” value is 38.75 ± 7.72%. In the case of `CSCC[C@H](NC(=O)[C@H](Cc1c[nH]c2ccccc12)NC(=O)[C@H](CCCNC(=N)N)NC(=O)CCNC(C)=O)C(=O)N[C@@H](CC(C)C)C(=O)N[C@@H](C)C(=O)N[C@@H](Cc1ccc(O)cc1)C(=O)N[C@@H](CCCNC(=N)N)C(=O)N[C@@H](CCCNC(=N)N)C(N)=O` [Ac-LP20-Ala6, Ac-βA-RWMLAYRR-CONH2] (Ac-[βAla]RWMLAYRR-NH2), the “PPI (%) mycelium” value stood at 62.2 ± 7.54%.

The test is the same for the next values; noted with them: Ala-scan of Ac-LP32; P. infestans mycelium in vitro.
With `CC(=O)NCCC(=O)NCC(=O)N[C@@H](C)C(=O)N[C@@H](CC(C)C)C(=O)N[C@@H](CCCNC(=N)N)C(=O)N[C@@H](Cc1c[nH]c2ccccc12)C(=O)N[C@@H](CC(C)C)C(=O)N[C@@H](CCCNC(=N)N)C(=O)N[C@H](C(N)=O)C(C)C` [Ac-LP32-Ala3, Ac-βA-GALRWLRV-CONH2] (Ac-[βAla]GALRWLRV-NH2), the “PPI (%) micelio” value is reported as 58.78 ± 3.94%. The same measure, in the same setting: with `CC(=O)NCCC(=O)NCC(=O)N[C@@H](CCCNC(=N)N)C(=O)N[C@@H](CC(C)C)C(=O)N[C@@H](C)C(=O)N[C@@H](Cc1c[nH]c2ccccc12)C(=O)N[C@@H](CC(C)C)C(=O)N[C@@H](CCCNC(=N)N)C(=O)N[C@H](C(N)=O)C(C)C` [Ac-LP32-Ala5, Ac-βA-GRLAWLRV-CONH2] (Ac-[βAla]GRLAWLRV-NH2) the figure was 40.46 ± 1.76%.

As for `CC(=O)NCCC(=O)NCC(=O)N[C@@H](CCCNC(=N)N)C(=O)N[C@@H](CC(C)C)C(=O)N[C@@H](CCCNC(=N)N)C(=O)N[C@@H](Cc1c[nH]c2ccccc12)C(=O)N[C@@H](CC(C)C)C(=O)N[C@@H](C)C(=O)N[C@H](C(N)=O)C(C)C` [Ac-LP32-Ala8, Ac-βA-GRLRWLAV-CONH2] (Ac-[βAla]GRLRWLAV-NH2), the “PPI (%) micelio” value came out at 17.56 ± 7.48%. On the same count and under the same terms, the value for `CC(=O)NCCC(=O)NCC(=O)N[C@@H](CCCNC(=N)N)C(=O)N[C@@H](CC(C)C)C(=O)N[C@@H](CCCNC(=N)N)C(=O)N[C@@H](Cc1c[nH]c2ccccc12)C(=O)N[C@@H](CC(C)C)C(=O)N[C@@H](CCCNC(=N)N)C(=O)N[C@@H](C)C(N)=O` [Ac-LP32-Ala9, Ac-βA-GRLRWLRA-CONH2] (Ac-[βAla]GRLRWLRA-NH2) was 19.85 ± 2.92%; that for `CC(=O)NCCC(=O)NCC(=O)N[C@@H](CCCNC(=N)N)C(=O)N[C@@H](CC(C)C)C(=O)N[C@@H](CCCNC(=N)N)C(=O)N[C@@H](Cc1c[nH]c2ccccc12)C(=O)N[C@@H](C)C(=O)N[C@@H](CCCNC(=N)N)C(=O)N[C@H](C(N)=O)C(C)C` [Ac-LP32-Ala7, Ac-βA-GRLRWARV-CONH2] (Ac-[βAla]GRLRWARV-NH2) was 59.29 ± 7.05%. Consider `CC(=O)NCCC(=O)NCC(=O)N[C@@H](CCCNC(=N)N)C(=O)N[C@@H](CC(C)C)C(=O)N[C@@H](CCCNC(=N)N)C(=O)N[C@@H](C)C(=O)N[C@@H](CC(C)C)C(=O)N[C@@H](CCCNC(=N)N)C(=O)N[C@H](C(N)=O)C(C)C` [Ac-LP32-Ala6, Ac-βA-GRLRALRV-CONH2] (Ac-[βAla]GRLRALRV-NH2), for which the “PPI (%) micelio” value is 54.20 ± 4.31%. On the same count and under the same terms, with `CC(=O)NCCC(=O)N[C@@H](C)C(=O)N[C@@H](CCCNC(=N)N)C(=O)N[C@@H](CC(C)C)C(=O)N[C@@H](CCCNC(=N)N)C(=O)N[C@@H](Cc1c[nH]c2ccccc12)C(=O)N[C@@H](CC(C)C)C(=O)N[C@@H](CCCNC(=N)N)C(=O)N[C@H](C(N)=O)C(C)C` [Ac-LP32-Ala2, Ac-βA-ARLRWLRV-CONH2] (Ac-[βAla]ARLRWLRV-NH2) the figure was 74.81 ± 3.63%; with `CC(=O)NCCC(=O)NCC(=O)N[C@@H](CCCNC(=N)N)C(=O)N[C@@H](C)C(=O)N[C@@H](CCCNC(=N)N)C(=O)N[C@@H](Cc1c[nH]c2ccccc12)C(=O)N[C@@H](CC(C)C)C(=O)N[C@@H](CCCNC(=N)N)C(=O)N[C@H](C(N)=O)C(C)C` [Ac-LP32-Ala4, Ac-βA-GRARWLRV-CONH2] (Ac-[βAla]GRARWLRV-NH2), 56.49 ± 10.10%.
